Assay results as given in patent US12440500B2, “Phytoecdysones and the derivatives thereof for use in the treatment of neuromuscular diseases” (BIOPHYTIS, priority 2019, dated 2025).

Tests used:
Type in all cases: in vivo, mouse
[1] = test system: SMA mice (FVB/NRj-SmnΔ7/Δ7 huSMN2+/+ 2 copies); assay: Phenotypic analysis: weight and survival of severe SMA mice under daily gavage
Source text: A severe SMA mouse model was used on an FVB/NRj gene pool, characterized by the invalidation of the exon 7 of the murine gene Smn and expressing 2 copies of the human transgene SMN2 (Smn^Δ7/Δ7; huSMN2^+/+) (Hsieh et al., 2000). The mice resulting from these crossings having the “FVB/NRj-Smn^Δ7/Δ7 huSMN2^+/+ 2 copies” genotype are described as “SMA”. These mice are characterized by progressive growth failure which is observed starting from 4 days post-natal and have a degeneration of about 50% of the motor neurons of the ventral horn of the spinal cord at the end of life, progressive muscular atrophy and an average lifespan of about 12 days (Hsieh et al., 2000). The mice having the “FVB/NRj-Smn^+/Δ7 huSMN2^++ 2 copies” genotype have no particular phenotype and are used as so-called “control” mice. The mice were treated via daily gavage of a dose of 50 mg/kg, either with the molecule BIO101 complexed to a vehicle (cyclodextrin in the present case), or with the vehicle alone (VH). The weight and the survival were analyzed on a daily basis until P11. In the rest of the description, n corresponds to the size of the sample and p corresponds to the “p value” used to quantify the statistical significance of a result.
The same type II murine model was used to characterize the phenotypic effects of the molecule BIO103 in a severe SMA model. The mice were treated via daily gavage of a dose of 50 mg/kg, either with the molecule BIO103 complexed with the vehicle (cyclodextrin in the present case), or with the vehicle alone (VH). The weight and the survival were analyzed on a daily basis until P11.

AKT = assay: Western blot, phosphorylation of AKT in SMA mice
Protocol: (§1) The frozen muscle Plantaris was homogenized in extraction buffer by mechanical grinding. The supernatant containing the protein extract was sampled, then the protein extracts were then dosed according to the Lowry protein assay. An electrophoresis on SDS-PAGE gel was conducted, then the separated proteins were transferred onto membranes. The primary antibodies used were the following: mouse monoclonal anti-SMN (1:5,000), rabbit polyclonal anti-Ser 473 phospho-AKT (1:1000), rabbit polyclonal anti-AKT ( 1/100), rabbit monoclonal anti phospho-ERK ½ (1:500), anti-MAP Kinase ½ (ERK ½) (1:1000). […] The optical density of each specific band was quantified with image processing software by subtracting the background and by normalizing with the optical density of the β-actin bands. For the controls treated with the vehicle, the values obtained were determined at 1 and the values of the other groups were normalized in relation to these controls and expresses as a relative quantity. […] The quantitative values of pAKT at the Plantaris represent 3 mice per group treated with the vehicle (control or SMA) and 4 mice treated with BIO101. The quantitative values of pERK at the Plantaris represent at least 4 mice per group. The quantitative values of SMN represent n=2. […]

SMN protein = assay: Western blot, level of expression of the SMN protein in SMA mice
Protocol: as §1

SMA mice = assay: Grip test (muscular fatigability)
Protocol: Phenotypic analyses of type 2 severe SMA mice treated or not starting from P0 with BIO101 were conducted. Longitudinally every two days, a test was conducted of the motor capacities of the mice from P5 to P9. The inventors evaluated the spontaneous displacement capacities by the open-field test, as well as the muscular fatigability by grip test, such as described hereinabove (Biondi et al., 2008; Branchu et al., 2013; Chali et al., 2016).
Indeed, the number of squares that they are able to cross is 10 at P5, 6 at P7 and 8 at P9 versus 17 at P5, 12 at P7 and 24 at P9 in the group of healthy control mice (with p<0.01, p<0.0001 and p<0.001 respectively). […] At P9, this difference is not significant but the treatment with BIO101 tends to have a beneficial effect with mice that are able to cross 11 squares in the group of SMA mice BIO101 in relation to 8 squares in the SMA Vehicle group, p=ns). In order to evaluate muscular fatigability, the gripping force of the hind feet of the mice was tested from P5 to P9 (grip test). The mice are suspended via their hind feet from a thin metal rod suspended in the air, horizontally. The time spent hanging on is recorded. Each mouse was subjected to five successive attempts with a rest period of one minute between two tests. Only the best test was retained for the evaluation of the muscular functions.

[2] = muscle Plantaris, SMA mice treated P0 to P11

Structure (SMILES): CC(C)(O)CC[C@@H](O)[C@](C)(O)[C@H]1CC[C@@]2(O)C3=CC(=O)[C@@H]4C[C@@H](O)[C@@H](O)C[C@]4(C)[C@H]3CC[C@]12C [BIO101, 20-hydroxyecdysone]
- pre-P11 mortality ([1]; 50 mg/kg daily gavage P0 to P11, versus vehicle, p<0.05): significantly reduces
- loss of weight of the animals ([1]; 50 mg/kg daily gavage from birth to P11, versus vehicle): significantly limit
- phosphorylation of AKT (pAKT) (AKT; [2]): very substantially increasing
- level of pAKT (AKT; spinal cord, SMA mice treated daily for 11 days): increasing
- level of expression of SMN (SMN protein; [2]): no modification
- level of SMN (SMN protein; spinal cord, SMA mice treated for 11 days): does not allow for the restoration
- hanging time (grip test) (SMA mice; P5, SMA mice (vehicle 0.2), p<0.05): 2.3 s
- hanging time (grip test) (SMA mice; P7, SMA mice (vehicle 6.2), p=ns): 12.2 s
- hanging time (grip test) (SMA mice; P9, SMA mice (vehicle 5.6), p<0.01): 20.9 s
